In patent US20110008461A1 (priority 2008, published 2011):
Values joined by “and” are separate entries in the source; they are usually repeats but may differ in a detail not shown here. Identical values can stand only once. Counter-ions that a name gives are not always drawn. Like-named read-outs stand apart in the source and are kept apart here. Marks after values point to notes of the source that are not given here.

What was measured:
PEPCK [1] = molecular target: T1, PEPCK (Rattus norvegicus, UniProt P07379); experiment: Kinetic analysis of CMMP inhibition of PEPCK against PEP (FIG. 5); assay type: biochemical
T1 sequence (P07379 1-622): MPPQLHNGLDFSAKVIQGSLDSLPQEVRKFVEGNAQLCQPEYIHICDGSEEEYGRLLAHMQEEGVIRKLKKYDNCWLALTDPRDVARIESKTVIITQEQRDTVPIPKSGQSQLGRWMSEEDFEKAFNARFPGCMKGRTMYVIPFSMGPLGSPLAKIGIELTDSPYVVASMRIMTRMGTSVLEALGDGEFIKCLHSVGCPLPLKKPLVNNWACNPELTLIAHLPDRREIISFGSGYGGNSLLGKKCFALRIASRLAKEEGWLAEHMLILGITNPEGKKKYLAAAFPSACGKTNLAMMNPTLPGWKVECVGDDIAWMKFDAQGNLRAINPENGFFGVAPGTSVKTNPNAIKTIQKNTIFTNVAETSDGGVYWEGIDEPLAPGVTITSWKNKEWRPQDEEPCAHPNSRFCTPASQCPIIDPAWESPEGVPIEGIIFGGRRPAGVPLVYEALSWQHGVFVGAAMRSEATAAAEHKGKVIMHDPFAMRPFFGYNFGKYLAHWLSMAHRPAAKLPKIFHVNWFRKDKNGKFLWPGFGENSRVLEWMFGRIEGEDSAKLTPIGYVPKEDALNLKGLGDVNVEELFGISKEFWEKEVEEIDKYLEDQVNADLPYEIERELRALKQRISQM
Excerpt: The ‘I’ values given in the legend are the concentrations of CMMP used in uM.
This was originally supported by the inhibition of PEPCK by sulfoacetate. […] Based upon that work, we proposed a novel scaffold to be utilized in the development of molecules that bridge these two sub-sites with and in doing so would gain potency and, perhaps more importantly with a metabolic enzyme like PEPCK, specificity. This scaffold is Formulas C, E, and/or G and an example is CMMP. […] This molecule thereby gains both potency and specificity for PEPCK. […] The information obtained from FIGS. 4 and 5 indicate that derivatives of CMMP, as shown by the scaffolds of Formulas E and G, are likely to be similarly effective as CMMP.

PEPCK [2] = settings: cited from earlier work
[3] = molecular target: T2, Rat Liver Cytosolic Phosphoenolpyruvate Carboxykinase (Rattus norvegicus, UniProt P07379); experiment: Continuous spectrophotometric PEPCK inhibition assay coupled to malate dehydrogenase (preliminary screen, inhibition patterns, Dixon plots); settings: for Inhibition of PEPCK (in words): against PEP;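 for all read-outs here: PEPCK activity followed continuously via malate dehydrogenase coupling, where OAA reduction consumes NADH, seen as falling absorbance at 340 nm, run at 35 °C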
T2 sequence (P07379 1-622): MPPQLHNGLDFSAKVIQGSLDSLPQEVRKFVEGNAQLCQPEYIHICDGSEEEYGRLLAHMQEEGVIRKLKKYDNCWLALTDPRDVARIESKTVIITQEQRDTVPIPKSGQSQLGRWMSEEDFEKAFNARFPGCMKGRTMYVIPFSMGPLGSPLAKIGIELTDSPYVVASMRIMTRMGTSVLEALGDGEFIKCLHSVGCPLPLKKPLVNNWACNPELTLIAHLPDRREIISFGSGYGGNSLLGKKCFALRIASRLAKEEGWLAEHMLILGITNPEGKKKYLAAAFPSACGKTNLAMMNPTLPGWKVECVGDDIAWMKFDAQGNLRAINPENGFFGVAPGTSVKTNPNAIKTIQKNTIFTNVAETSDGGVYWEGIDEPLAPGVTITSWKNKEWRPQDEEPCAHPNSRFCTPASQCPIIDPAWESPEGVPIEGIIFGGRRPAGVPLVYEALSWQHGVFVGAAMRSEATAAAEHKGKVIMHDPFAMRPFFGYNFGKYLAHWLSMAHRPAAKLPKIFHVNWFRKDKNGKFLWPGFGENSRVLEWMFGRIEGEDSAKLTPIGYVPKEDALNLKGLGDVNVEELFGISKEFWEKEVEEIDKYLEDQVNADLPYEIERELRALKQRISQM
Experimental: TES (pH 7.2), 7.5% glycerol (v:v), 0.2 mM EDTA.
The inhibition of PEPCK by various compounds was evaluated using a continuous spectrophotometric assay in which the coupling enzyme, malate dehydrogenase, reduced OAA to malate concomitant with the oxidation of NADH to NAD^+. The decrease in absorbance at 340 nm was monitored using a Beckman DU-70 Spectrophotometer equipped with a temperature controller. The standard 1-mL reaction mixture for the production of OAA contained 56 mM HEPES-KOH buffer (pH 7.0), 1 mM IDP (or alternatively, 0.1 mM GDP), 23 U malate dehydrogenase (1 unit of malate dehydrogenase is defined as 1 mole malate produced/min/mg protein), 0.25 mM NADH, 2.3 mM MnCl2, and 48 mM NaHCO3. […] All assay components except PEPCK were preincubated in the cuvette for 3 min at 35° C., the standard assay temperature.
The kinetic parameters for the inhibition studies were best fit to the equations for competitive inhibition (Eq. 1) and noncompetitive inhibition (Eq. 2), using the computer program and nomenclature of Cleland (Cleland, W. W. (1979) Statistical analysis of enzyme kinetic data. Methods Enzymol 63, 103-138).
v=VA/[K(1+1/Kis)+A] (Eq. 1)
v=VA/[K(1/Kis)+A(1+1/Kii)] (Eq. 2)
The parameters are defined as follows: v is the initial velocity, V is the maximal rate of product formation in the absence of inhibitor, A is the concentration of the variable substrate, K is the apparent Michaelis constant for the varied substrate, and Kis and Kii are the inhibition constants.

[4] = analogue 3 mM, PEP 40 μM, preliminary screen, average of two PEPCK preparations
[5] = from Dixon plots using two PEP concentrations
[6] = analogue 6 mM, PEP 40 μM, preliminary screen, average of two PEPCK preparations

| SMILES | % Activity Remaining [3, 4] | Inhibition of PEPCK (in words) [3] | also measured |
| --- | --- | --- | --- |
| O=C(O)CSc1cccnc1C(=O)O [CMMP, 3-carboxymethylmercaptopicolinic acid] | – | – | Ki (PEPCK [1]): 12 µM; Pattern of Inhibition (PEPCK [1]; against PEP): competitive |
| O=C(O)C(=O)O [Compound 1, Oxalate] | – | – | Ki (PEPCK [2]): 5 to 89 µM |
| O=C(O)CC(=O)O [Compound 2, Malonate] | 102^c % | – | – |
| O=C(O)CCC(=O)O [Compound 3, Succinate] | 91^c % | – | Ki [3, 5]: > 8000 µM |
| O=C(O)CC(C(=O)O)S(=O)(=O)O (stereo not shown) [Compound 4, Sulfosuccinate] | – | – | % Activity Remaining [3]: 55^c %; Ki [3]: ~3300 µM and 3300 µM |
| O=C(O)/C=C\C(=O)O [Compound 5, Maleate] | – | – | % Activity Remaining [3, 6]: 52^e %; Ki [3, 5]: ~2000 µM; Ki ([3]; from Dixon plots using two PEP concentrations, listed as Maleate (5)): 2000 µM |
| O=C(O)/C=C/C(=O)O [Compound 6, Fumarate] | – | did not inhibit | % Activity Remaining [3, 6]: 83^e % |
| C=C(CC(=O)O)C(=O)O [Compound 7, Itaconate] | 91^c % | – | – |
| O=C(O)C1CCCC1C(=O)O (stereo not shown) [Compound 8, 1,2-Cyclopentanedicarboxylate] | – | – | % Activity Remaining [3]: 91^c % |
| N[C@@H](CC(=O)O)C(=O)O [Compound 9, L-Aspartate] | 112^c % | – | – |
| O=C(O)CP(=O)(O)O [Compound 11, Phosphonoacetate] | 108^c % | noninhibitory | – |
| O=C(O)[C@@H](CO)OP(=O)(O)O [Compound 14, 2-D-Phosphoglycerate] | 110^c % | noninhibitory | – |
| C=C(CP(=O)(O)O)C(=O)O [Compound 15, 2-(Phosphonomethyl)acrylate] | 92^c % | noninhibitory | – |
| O=C(O)[C@H](O)[C@@H](O)[C@H](O)[C@H](O)COP(=O)(O)O [Compound 16, 6-phosphogluconate] | 117^c % | does not inhibit | – |
| O=C(O)CNCP(=O)(O)O [Compound 17, N-Phosphonomethylglycine] | 104^c % | – | – |
| NC(CP(=O)(O)O)C(=O)O (stereo not shown) [Compound 18, 2-Amino-3-phosphonopropionate] | 94^c % | fails to inhibit | – |
| NC(CCP(=O)(O)O)C(=O)O (stereo not shown) [Compound 19, 2-Amino-4-phosphonobutyrate] | 104^c % | – | – |
